{"source": "patent US20160367622A1", "about": "“AGONISTS OF GUANYLATE CYCLASE USEFUL FOR THE TREATMENT OF OPIOID INDUCED DYSFUNCTIONS” (priority 2013, published 2016)", "key": {"T84 cells monolayer": {"system": "T84 cells monolayer", "details": "for effect on SP-333 stimulation of Isc: T84 cells monolayer, opioid either pre or post SP-333 treatment; for effect on 1 μM SP-333-stimulated Isc: apical pre-treatment with 5 μM opioid for 5 min"}, "rat jejunum tissue": {"system": "rat jejunum tissue", "details": "for effect of inhibitor on SP-333-stimulated Isc / effect on 1 μM SP-333-stimulated Isc: rat jejunum; for effect of inhibitor on SP-333-stimulated Isc: inhibitor pretreatment 5 min, then 1 μM SP-333; for effect on SP-333 stimulation of Isc: rat jejunum tissue, opioid either pre or post SP-333 treatment; for effect on 1 μM SP-333-stimulated Isc: apical pre-treatment with 5 μM opioid for 5 min"}, "[1]": {"system": "female Sprague-Dawley rats", "assay": "methadone-induced delay in rat GI transit (charcoal meal)", "type": "in vivo", "protocol": "(§1) Animals: All study procedures were conducted under a study outline approved by the Institutional Animal Care and Use Committee of MB Research Labs (Spinnerstown, Pa.) or Lampire Biological Laboratories (Pipersville, Pa.). Seven to eight week old female Sprague-Dawley rats [Crl:CD(SD)], weighing between ˜180-210 grams, were obtained from Charles River Laboratories and allowed to acclimate for a week. Animals were maintained on a 12 hour light-dark cycle. For intestinal tissue collection and evaluation of GI transit, rats were fasted for at least 18 hours before the experiment, with free access to water.\n(§2) The ability of opioids to delay GI transit in rats was tested by either administering 0 (vehicle) 0.25, 1 and 2.5 mg/kg of morphine or 0 (vehicle), 0.25, 2.5 and 5 mg/kg of methadone (1.5 ml/kg dose volume) by IP injection. Water served as vehicle control. Ten minutes later, a 2 mL charcoal meal consisting of 10% activated charcoal (Sigma-Aldrich, St. Louis, Mo.) and 10% gum Arabic (Sigma-Aldrich, St. Louis, Mo.) in water was administered via oral gavage. Rats were euthanized 10 min after the charcoal meal via IP injection of 150 mg/kg Beuthanasia-D solution (sodium pentobarbital, 390 mg/mL). The small intestine was removed and the total length from the pyloric sphincter to the ileocecal junction was recorded, as well as the distance traveled by the leading edge of the charcoal. Intestinal transit was determined by calculating the ratio (expressed as a percentage) of the distance between the pyloric sphincter and the leading edge of the charcoal to the distance between the pyloric sphincter and the ileocecal junction.\nTo evaluate the ability of SP-333 to reverse methadone induced delayed GI transit, animals were administered 2.5 mg/kg of methadone by IP injection. Ten minutes later, an oral gavage of 0 (vehicle), 0.1, 0.5, 2.5, 5 and 50 mg/kg of SP-333 (1.5 ml/kg dose volume) was administered followed immediately by a 2 mL oral gavage of the charcoal meal. Ten minutes after the charcoal meal, animals were euthanized and intestinal transit was calculated as described above."}, "[2]": {"system": "female Sprague-Dawley CD rats", "assay": "GI transit delay induced by repeated methadone administration in rats", "type": "in vivo, rat", "details": "after 16 doses (once daily; 7 doses at 5 mg/kg and 9 doses at 2.5 mg/kg)", "protocol": "The ability of SP-333 to alleviate GI transit delay induced by repeated methadone administration was also evaluated in the similar manner. Female Sprague-Dawley CD rats 7 to 8 weeks of age (n=7/group) received via IP injection 16 doses of methadone (once daily; 7 doses @ 5 mg/kg and 9 doses @ 2.5 mg/kg). Ten minutes following each methadone dose, each group received an oral gavage of vehicle, 2.5, and 5 mg/kg of SP-333. At the end of the dosing regimen, animals were fasted overnight and GI transit was evaluated as described above."}, "[3]": {"system": "female Sprague-Dawley CD rats", "assay": "methadone-induced constipation in rats (fecal output)", "type": "in vivo, rat"}, "[4]": {"system": "female Sprague-Dawley CD rats", "assay": "methadone-induced constipation in rats (fecal output)", "type": "in vivo, rat", "details": "for average number of fecal pellets over 4 h, lower compared to the vehicle group: light cycle", "protocol": "To identify the methadone dose that induces constipation in rats, female Sprague-Dawley CD rats 7 to 8 weeks of age (n=6/group) were administered 0 (vehicle), 2.5, 5, and 7.5 mg/kg of methadone (1.5 ml/kg dose volume) by IP injection once a day for 5 days. Fecal pellets were collected at 4 h intervals during the light cycle and average number of pellets was recorded for each group during the course of the study following daily dose administrations of methadone.\nTo evaluate the ability of SP-333 to relieve methadone-induced constipation, female Sprague-Dawley CD rats 7 to 8 weeks of age (n=7/group) were administered 5 mg/kg of methadone (or vehicle) each day for 7 days via IP injection to induce constipation. Ten minutes following the IP dose each day, an oral gavage of 2.5, and 5 mg/kg of SP-333 or vehicle (buffer) was administered. Fecal pellets were collected at 4 h intervals during the light cycle and average number of pellets recorded for each group during the course of the study following daily administration of vehicle, methadone or combination of methadone and SP-333."}, "[5]": {"system": "female Sprague-Dawley rats", "assay": "morphine-induced delay in rat GI transit (charcoal meal)", "type": "in vivo", "details": "for GI transit slowed compared to vehicle controls: rats", "protocol": "as §1, §2\nTo evaluate the ability of SP-333 to reverse morphine induced delayed GI transit, animals were administered 2.5 mg/kg of morphine by IP injection followed immediately by oral gavage of 0 (vehicle), 0.5, 2.5, 5 and 50 mg/kg of SP-333 (1.5 ml/kg dose volume). Water served as vehicle control. Charcoal meal was administered ten minutes later and animals were euthanized ten minutes after the charcoal meal and intestinal transit was calculated as described above."}, "[6]": {"target": "guanylate cyclase-C (GC-C) on T84 cells (human (T84, human carcinoma cell line), UniProt P25092 24-1073)", "sequence (P25092 24-1073)": "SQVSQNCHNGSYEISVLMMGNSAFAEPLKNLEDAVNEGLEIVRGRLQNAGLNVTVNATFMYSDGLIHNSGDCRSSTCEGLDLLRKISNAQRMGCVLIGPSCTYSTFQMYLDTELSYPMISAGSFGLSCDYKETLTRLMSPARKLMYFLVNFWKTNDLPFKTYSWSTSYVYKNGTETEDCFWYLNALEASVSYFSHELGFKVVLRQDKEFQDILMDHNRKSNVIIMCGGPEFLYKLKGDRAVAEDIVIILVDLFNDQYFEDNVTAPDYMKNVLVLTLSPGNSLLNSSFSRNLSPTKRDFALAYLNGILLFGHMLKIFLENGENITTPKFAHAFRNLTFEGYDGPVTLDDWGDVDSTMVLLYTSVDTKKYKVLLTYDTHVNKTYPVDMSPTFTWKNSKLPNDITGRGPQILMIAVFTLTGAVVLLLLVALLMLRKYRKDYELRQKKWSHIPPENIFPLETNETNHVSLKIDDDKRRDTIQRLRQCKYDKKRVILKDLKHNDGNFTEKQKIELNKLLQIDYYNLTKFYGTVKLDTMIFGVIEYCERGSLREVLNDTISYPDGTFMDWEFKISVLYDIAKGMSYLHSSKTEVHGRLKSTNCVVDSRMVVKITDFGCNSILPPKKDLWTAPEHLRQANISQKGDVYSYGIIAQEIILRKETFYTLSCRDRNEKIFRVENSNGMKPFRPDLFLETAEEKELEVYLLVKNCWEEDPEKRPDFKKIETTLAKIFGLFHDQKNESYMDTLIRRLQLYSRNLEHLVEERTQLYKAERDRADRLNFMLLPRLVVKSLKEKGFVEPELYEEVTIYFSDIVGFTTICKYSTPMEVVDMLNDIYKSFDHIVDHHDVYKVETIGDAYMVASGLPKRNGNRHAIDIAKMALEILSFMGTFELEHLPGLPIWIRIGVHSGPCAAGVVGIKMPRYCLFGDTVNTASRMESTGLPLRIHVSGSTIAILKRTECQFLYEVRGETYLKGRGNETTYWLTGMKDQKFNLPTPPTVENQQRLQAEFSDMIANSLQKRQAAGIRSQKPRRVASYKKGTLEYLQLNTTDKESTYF", "assay": "cell-based or functional assay"}, "[7]": {"target": "T1, guanylate cyclase-C (GC-C) in rat jejunum (rat, UniProt P23897 23-1072)", "T1 sequence (looked up)": "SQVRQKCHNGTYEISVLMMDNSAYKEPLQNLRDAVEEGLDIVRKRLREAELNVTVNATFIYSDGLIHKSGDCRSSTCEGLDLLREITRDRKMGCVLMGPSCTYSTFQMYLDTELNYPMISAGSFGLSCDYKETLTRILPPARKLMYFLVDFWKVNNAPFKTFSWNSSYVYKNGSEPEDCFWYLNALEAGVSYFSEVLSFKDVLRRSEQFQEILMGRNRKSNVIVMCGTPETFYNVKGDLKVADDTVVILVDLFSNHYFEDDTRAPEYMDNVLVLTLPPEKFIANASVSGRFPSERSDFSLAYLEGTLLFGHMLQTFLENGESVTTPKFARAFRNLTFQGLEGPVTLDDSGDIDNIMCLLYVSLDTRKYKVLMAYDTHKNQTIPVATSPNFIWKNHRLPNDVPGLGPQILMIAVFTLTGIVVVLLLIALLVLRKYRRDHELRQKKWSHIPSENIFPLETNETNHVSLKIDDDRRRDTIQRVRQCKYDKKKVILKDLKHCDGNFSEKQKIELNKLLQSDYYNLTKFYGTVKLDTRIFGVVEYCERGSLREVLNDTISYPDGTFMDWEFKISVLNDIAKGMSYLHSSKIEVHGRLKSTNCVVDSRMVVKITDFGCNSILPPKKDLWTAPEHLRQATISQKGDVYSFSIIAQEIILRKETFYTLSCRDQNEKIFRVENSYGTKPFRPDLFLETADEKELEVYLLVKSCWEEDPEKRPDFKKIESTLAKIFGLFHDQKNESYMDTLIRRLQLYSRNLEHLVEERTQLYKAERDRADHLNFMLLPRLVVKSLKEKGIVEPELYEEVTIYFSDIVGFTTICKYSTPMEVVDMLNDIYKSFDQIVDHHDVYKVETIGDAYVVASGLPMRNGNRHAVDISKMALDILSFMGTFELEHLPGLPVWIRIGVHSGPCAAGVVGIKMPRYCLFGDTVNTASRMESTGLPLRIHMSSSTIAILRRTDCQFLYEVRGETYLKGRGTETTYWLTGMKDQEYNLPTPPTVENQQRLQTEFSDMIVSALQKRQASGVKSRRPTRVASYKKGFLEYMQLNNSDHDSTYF", "assay": "cell-based or functional assay"}}, "note": "Positions of bridges follow the written chain, without caps; N, C: chain ends. Non-standard residues stand in square brackets, D forms with d. No end group written: not given here.", "data": [{"molecule": "O=C(O)c1ccc(/C=C2\\SC(=S)N(c3cccc(C(F)(F)F)c3)C2=O)cc1", "note": "[CFTRinh172]", "values": [{"measurement": "suppression in SP-333-stimulated Isc", "setting": "T84 cells monolayer; T84 cells, 10 μM inhibitor, vs 1 μM SP-333 alone", "result": 80, "unit": "%"}, {"measurement": "effect of inhibitor on SP-333-stimulated Isc", "setting": "rat jejunum tissue", "result": "less compared to that detected in T84 cells"}]}, {"molecule": "Nc1ncnc2c1nc(Sc1ccc(Cl)cc1)n2[C@@H]1O[C@@H]2COP(=O)(O)O[C@H]2[C@H]1O", "note": "[CPT-cAMP]", "values": [{"measurement": "stimulation of Isc across T84 cell monolayers", "setting": "T84 cells monolayer", "result": "stimulate Isc"}]}, {"molecule": "Nc1nc2c(nc(Sc3ccc(Cl)cc3)n2[C@@H]2O[C@@H]3COP(=O)(O)O[C@H]3[C@H]2O)c(=O)[nH]1", "note": "[CPT-cGMP]", "values": [{"measurement": "stimulation of Isc across T84 cell monolayers", "setting": "T84 cells monolayer", "result": "stimulate Isc"}]}, {"molecule": "[Cl][Cd][Cl]", "note": "[CdCl2]", "values": [{"measurement": "decrease in SP-333-stimulated Isc", "setting": "T84 cells monolayer; T84 cells, 300 μM, 1 μM SP-333", "result": "No appreciable decrease"}, {"measurement": "effect of inhibitor on SP-333-stimulated Isc", "setting": "rat jejunum tissue", "result": "minimal effect"}]}, {"molecule": "COC(=O)[C@@]1(OC)C[C@H]2O[C@]1(C)n1c3ccccc3c3c4c(c5c6ccccc6n2c5c31)C(=O)N(C)C4", "note": "[PKG-II inhibitor]", "values": [{"measurement": "suppression of relative SP-333-stimulated Isc", "setting": "T84 cells monolayer; T84 cells, 4 μM inhibitor, 1 μM SP-333", "result": "approximately 35%"}]}, {"molecule": "CCC(=O)C(CC(C)N(C)C)(c1ccccc1)c1ccccc1", "note": "(stereo not drawn) [methadone]", "values": [{"measurement": "GI transit", "setting": "[1]; 2.5 mg/kg methadone IP alone (vs 55% in vehicle treated)", "result": 28, "unit": "%"}, {"measurement": "GI transit", "setting": "[1]; 0.25, 2.5 and 5 mg/kg IP, rats", "result": "statistically significant reduction in GI transit"}, {"measurement": "effect on SP-333 stimulation of Isc", "setting": "T84 cells monolayer", "result": "did not alter stimulation of Isc"}, {"measurement": "effect on 1 μM SP-333-stimulated Isc", "setting": "T84 cells monolayer; T84 cells", "result": "no effect"}, {"measurement": "effect on SP-333 mediated enhancement in Isc", "setting": "T84 cells monolayer; T84 monolayer, 1 μM SP-333 then opioid at 20 μM, FIG. 5B", "result": "inhibited"}, {"measurement": "effect on SP-333 stimulation of Isc", "setting": "rat jejunum tissue", "result": "did not alter stimulation of Isc"}, {"measurement": "effect on 1 μM SP-333-stimulated Isc", "setting": "rat jejunum tissue", "result": "no effect"}, {"measurement": "rat small intestine transit", "setting": "[2]", "result": "significantly delayed rat small intestine transit"}, {"measurement": "average number of fecal pellets over 4 h, lower compared to the vehicle group", "setting": "[3]; 10 mg/kg IP once daily for 5 days, light cycle", "result": 63, "unit": "%"}, {"measurement": "average number of fecal pellets", "setting": "[3]; methadone alone 2.5 mg/kg IP once daily for 9 days", "result": "significant decrease in the average number of fecal pellets"}, {"measurement": "average number of fecal pellets over 4 h, lower compared to the vehicle group", "setting": "[4]; 2.5 mg/kg IP once daily for 5 days", "result": 29, "unit": "%"}, {"measurement": "average number of fecal pellets over 4 h, lower compared to the vehicle group", "setting": "[4]; 5 mg/kg IP once daily for 5 days", "result": 77, "unit": "%"}, {"measurement": "average number of fecal pellets over 4 h, lower compared to the vehicle group", "setting": "[4]; 7.5 mg/kg IP once daily for 5 days", "result": 54, "unit": "%"}, {"measurement": "average number of fecal pellets, less vs vehicle control", "setting": "[4]; methadone alone, 5.0 mg/kg IP daily 7 days then 2.5 mg on days 8-16", "result": 82, "unit": "%"}]}, {"molecule": "CN1CC[C@]23c4c5ccc(O)c4O[C@H]2[C@@H](O)C=C[C@H]3[C@H]1C5", "note": "[morphine]", "values": [{"measurement": "effect on SP-333 stimulation of Isc", "setting": "T84 cells monolayer", "result": "did not alter stimulation of Isc"}, {"measurement": "effect on 1 μM SP-333-stimulated Isc", "setting": "T84 cells monolayer; T84 cells", "result": "negligible effect"}, {"measurement": "effect on SP-333 stimulation of Isc", "setting": "rat jejunum tissue", "result": "did not alter stimulation of Isc"}, {"measurement": "effect on 1 μM SP-333-stimulated Isc", "setting": "rat jejunum tissue", "result": "negligible effect"}, {"measurement": "GI transit", "setting": "[5]; 2.5 mg/kg morphine IP alone (vs 53% in vehicle treated)", "result": 23, "unit": "%"}, {"measurement": "GI transit slowed compared to vehicle controls", "setting": "[5]; single dose 0.25 mg/kg IP", "result": 52, "unit": "%"}, {"measurement": "GI transit slowed compared to vehicle controls", "setting": "[5]; single dose 1.0 mg/kg IP", "result": 56, "unit": "%"}]}, {"molecule": "[dN]DECELCVNVACTGC[dL] (disulfide 4-12, 7-15)", "note": "[SP-333]", "values": [{"measurement": "EC50 of stimulation of Isc across T84 cells monolayer, apical treatment", "setting": "[6]", "result": 0.215, "unit": "µM"}, {"measurement": "EC50 of stimulation of Isc across rat jejunum tissue, apical treatment", "setting": "[7]", "result": 0.287, "unit": "µM"}]}]}
